Reference: PubChem BioAssay AID1249 (Columbia University Molecular Screening Center, 2008)
The source made the active and inactive calls. How the calls were made is not given here.

Columns and labels:
[1] = tested on: cell-based imaging, cytoskeleton assembly phenotype, high content; assay: modifiers of cytoskeleton assembly, confirmation, imaging, high-content imaging, retest and dose response (AID 1249);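 further: compound exposure lasted 24 h before fixation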
[2] = as above; settings: cell-based imaging, cytoskeleton assembly phenotype, high content; cell count; at 10 µM; stronger effect = lower value

Structure (SMILES) | IC50 [1] | cell count [2] [%]
CSc1nc(N(C)NC(=O)c2cccc(C)c2)c2ccccc2n1 | > 10 µM (inactive) | 31.6
N#CC1=C(N)Oc2c(ccc3ccccc23)C1c1cccs1 (stereo not given) | > 10 µM (inactive) | 28.9
O=C(N/N=C/C(Br)=C/c1ccccc1)c1n[nH]c2c1CCC2 | 5 µM | 30.8
Cn1cc(/C=N/n2cnc3scc(-c4ccc(Cl)cc4)c3c2=O)c2ccccc21 | > 10 µM (inactive) | 60.8
C=CCSc1nc2ccccc2n1C(=O)/C=C/c1cc(OC)c(OC)c(OC)c1 | > 10 µM (inactive) | 102
O=C(c1ccco1)N1CCN(C(=O)N2c3ccccc3Sc3ccccc32)CC1 | > 10 µM (inactive) | 42
COC(=O)C1CN(C#N)N(c2ccc(Cl)cc2)C12c1ccccc1-c1ccccc12 (stereo not given) | > 10 µM (inactive) | 85.3
Cc1ccc(NC2=C/C(=N\S(=O)(=O)c3cccs3)c3ccccc3C2=O)c(C)c1 | > 10 µM (inactive) | 79.8
CC(C)Oc1ccccc1C1CC(=O)Nc2cc3c(cc21)OCCO3 (stereo not given) | > 10 µM (inactive) | 88.5
Cc1cc(C)c(S(=O)(=O)Nc2ccc3c4c(cccc24)CC3)c(C)c1 | > 10 µM (inactive) | 78.5
CCOc1ccc(S(=O)(=O)Nc2cc(OC)ccc2OC)cc1 | > 10 µM (inactive) | 44.2
Cc1cc(C)c2nc(SCC(=O)N3CC(=O)Nc4ccccc43)c(C#N)cc2c1 | > 10 µM (inactive) | 51.1
COCCN1C(=O)c2oc3c(C)cc(C)cc3c(=O)c2C1c1cccc(O)c1 (stereo not given) | > 10 µM (inactive) | 86
Cc1ccc(-c2nc(NC(=O)c3nn(C)cc3[N+](=O)[O-])sc2C)cc1C | > 10 µM (inactive) | 88
CCN(CC)c1ccc2cc(-c3nc4ccccc4n3C)c(=O)oc2c1 | > 10 µM (inactive) | 99.7
COc1ccc(NC(=O)/C(Cl)=C(/Cl)S(=O)Cc2ccc(C)cc2)cn1 (stereo not given) | > 10 µM (inactive) | 63.4
CCCOC(=O)c1[nH]c2c(c1C)C(=O)CC(c1cccs1)C2 (stereo not given) | > 10 µM (inactive) | 40.1
O=C1CC(c2cc(Br)ccc2F)c2cc3c(cc2N1)CCC3 (stereo not given) | > 10 µM (inactive) | 105
CCn1c2ccccc2c2cc(NC(=O)c3cc(OC)c(OC)c(OC)c3)ccc21 | 1.73 µM | 32.4
CCOC(=O)c1[nH]c(C)c(C(=O)c2cc(F)ccc2F)c1C | > 10 µM (inactive) | 48.7
O=C(CS(=O)c1ccc(C(F)(F)F)cc1[N+](=O)[O-])Oc1ccccc1 (stereo not given) | > 10 µM (inactive) | 94.1
CC1=CC(C)(C)N(S(=O)(=O)c2ccc(C)cc2)c2cc(C)ccc21 | > 10 µM (inactive) | 90.8
CC(C)Oc1ccccc1C1CC(=O)Nc2cc3c(cc21)OCO3 (stereo not given) | > 10 µM (inactive) | 113
O=C(COc1ccccc1-c1ccccc1)N/N=C/c1cccc2ccccc12 | > 10 µM (inactive) | 85
COc1cc(-c2nnc3n2N=C(c2ccccc2)CS3)cc(OC)c1OC | > 10 µM (inactive) | 90.7
COc1cc(C2C(C#N)=C(C)NC3=C2C(=O)c2ccccc23)cc(OC)c1OC (stereo not given) | 1.55 µM | 34
O=C1C(=O)c2ccc(-c3ccccc3)cc2-c2ccccc21 | > 10 µM (inactive) | 111
COc1ccc(OC)c(C2C3=C(COC3=O)Nc3cc4c(cc32)OCO4)c1 (stereo not given) | > 10 µM (inactive) | 102

Structure (SMILES) | IC50 [1] | cell count [2] [%]
Cc1ccc(NC(=O)Cn2nnc(-c3ccccc3NC(=O)c3cccs3)n2)cc1 | > 10 µM (inactive) | 109
O=C(N/N=C/C(Br)=C\c1ccccc1)c1n[nH]c2c1CCC2 | 0.582 µM | 33.3
COC(=O)C[C@]1(C(=O)OC)CN(C#N)N(c2ccc(Cl)cc2)C12c1ccccc1-c1ccccc12 | > 10 µM (inactive) | 82
COc1ccc(-c2cc(C(F)(F)F)n3nc(C(=O)Nc4cc(C)on4)cc3n2)cc1OC | > 10 µM (inactive) | 92.1
CCCCN1C(=O)/C(=C/C=C2\N(C)c3ccccc3C2(C)C)SC1=S | > 10 µM (inactive) | 94.3
CN(C)c1ccc(C(=O)c2ccc(N(C)C)c3ccccc23)cc1 | 0.599 µM | 28.2
CCCC1=Nc2cc(C(=O)NCCCOCC)ccc2Sc2ccccc21 | 0.873 µM | 37.3
O=Cc1cc2ccccc2nc1SCc1ccc(Cl)c(Cl)c1 | > 10 µM (inactive) | 94.3
CCOc1ccccc1C(=O)N1CCN(c2cccc(Cl)c2)CC1 | 1.25 µM | 36.6
CCN(CC)c1ccc2c(c1)OC(N)=C(C#N)C2c1cccnc1 (stereo not given) | 0.625 µM | 33.7
COc1ccc(C2=Nn3c(nnc3-c3ccc(OC)cc3)SC2)cc1 | > 10 µM (inactive) | 91.1
CC(/C=N/NC(=O)c1cc(-c2ccncc2)nc2ccccc12)=C\c1ccco1 | 4.55 µM | 35.1
CC1CCC/C=C/C2CC(O)CC2C(O)/C=C/C(=O)O1 (stereo not given) | > 10 µM (inactive) | 33.9
COc1ccc(-c2c/c(=N\c3nc(-c4ccccc4)c(C)s3)c3ccccc3o2)cc1O | > 10 µM (inactive) | 113
CCN(CC)c1ccc(-c2nn3c(-c4ccccc4OC)nnc3s2)cc1 | 1.7 µM | 25.6
COc1cc(C2C3=C(Nc4ncnn42)c2ccccc2CC3)cc(OC)c1OC (stereo not given) | 5 µM | 43.2
CCSc1nc2ccccc2n1C(=O)/C=C\c1ccc(OC)c(OC)c1 | > 10 µM (inactive) | 111
O=S(=O)(c1ccc2c(c1)C(=NO)c1cc(S(=O)(=O)N3CCCCC3)ccc1-2)N1CCCCC1 | > 10 µM (inactive) | 126
Cc1ccc(Nc2nc(-c3c(C)nc4ccccn34)cs2)cc1 | 1.37 µM | 31.8
CC1=C([N+](=O)[O-])C(c2cccc(Br)c2)C2=C(N1)c1ccccc1C2=O (stereo not given) | 2.65 µM | 30.8
O=C(O)C1CCCCC1C(=O)Nc1cc(Cl)ccc1Cl (stereo not given) | > 10 µM (inactive) | 94.2
COc1ccc(NS(=O)(=O)c2cc(C)ccc2NC(=O)c2cc(C)oc2C)cc1 | > 10 µM (inactive) | 52
CCCOc1ccccc1C1CC(=O)Nc2cc3c(cc21)OCCO3 (stereo not given) | > 10 µM (inactive) | 125
COc1ccc(CCNc2nnc(Sc3nnnn3-c3ccccc3)s2)cc1OC | 1.87 µM | 32.1
O=C(Nc1nc(-c2ccncc2)cs1)C1COc2ccccc2O1 (stereo not given) | > 10 µM (inactive) | 92.2
CCOC(=O)c1[nH]c(C)c(C(=O)N2CCc3ccccc32)c1C | 5 µM | 31.8
Cc1cc(=O)oc2cc(OCC3CC(c4ccccc4Cl)=NO3)ccc12 (stereo not given) | > 10 µM (inactive) | 92.5
